Data as given in US5908868A, “Retinol derivatives useful for enhancing immune response” (priority 1995, dated 1999).
“Also recorded” adds a separate entry of the source. Where two headings read alike, the source gives them in different places. Blank lines part the entries; values can stand above or below the compound they belong to.

Experiments:
T cells = assay: T cell activation/proliferation; format: cell-based, murine; details: for substitution for retinol in T cell activation: with mitogen/anti-CD3; for T cell activation on its own: without mitogen
Experimental: They were seeded into 96-well flat-bottom plates at varying cellular densities in a final volume of 100 μl. In control experiments, cells were cultured in medium containing 10% FCS or 3% human serum and 5×10^-5 M 2 ME. […] Cultures were carried out in duplicate. Plates were incubated at 37° C. in a humidified 5% CO2 atmosphere. Cellular proliferation was determined by [^3 H] thymidine uptake (0.5 uCi/well; New England Nuclear, Boston, Mass.) after the incubation times indicated for each experiment with a 4 hour labeling pulse. Cells were harvested onto glass filter and [^3 H]TdR incorporation was determined by liquid scintillation counting. The data presented are the means of duplicate or six replicate cultures. The restriction to duplicate measurements was necessary to conserve scarce 14HRR. […] Each experiment was repeated at least twice.

[1] = Stability (half-life) in serum-free tissue culture; format: in vitro ADME
Reversion to retinol = format: in vitro ADME
5/2 cells = format: in vitro ADME, human
Experimental: 5/2 cells (10^6 cells in 10 ml HB 101 medium) were incubated with all-trans-[^3 H] retinol (10 uCe/ml). After 24 hours, retinoids were extracted from the washed cell pellet and unlabeled marker retinoids were added. The crude extract was loaded on an analytical reversed-phase C-18 column. Retinoids were eluted with the shown linear gradient of water/methanol/chloroform. The flow rate was 0.5 ml/min. DPM were determined with an on line scintillation counter. Reference retinoids were the all-trans forms of 0: 3,4-didehydroretinoic acid, 1: all-trans-retinoic acid, 2: 3,4-didehydroretinol, 3: retinol, 4: retinyl linoleate, 5: retinyl oleate, 6: retinyl palmitate. Shaded area corresponds to P3. Cross-hatched area corresponds to P1.
Lymphoblastoid 5/2 cells grown in the presence of 10^-6 M retinol were spiked with ^3 H-labeled retinol. After 16 hours the cell pellet was delipidated according to the method of McLean et al. and separated on a reversed phase C-18 HPLC column (FIG. 7). […] Three peaks, P1, P2 and P3, could not be immediately identified. One peak eluting at 36-39 minutes (corresponding 83% methanol 7% water) provisionally called P3, but now known as 14HRR, was unusual because unlike P1 eluting at 31-34 minutes, its relative amount increased when the retinol concentration was lowered or when retinol was given to the cells bound to RBP. […]

5/2 lymphoblastoid cells = format: in vitro ADME, human
Experimental: FIG. 24. Kinetics of biosynthesis of 14HRR in lymphoblastoid cells. 50 ml ITLB 600,000 5/2 cells/ml were incubated with 20 μCi of ^3 H retinol in serum-free ITLB medium. Cell pellets corresponding to 10 ml of culture were delipidated at 20 minute intervals and the corresponding lipid fraction separated on an analytical C18 reversed-phase column (see FIG. 20). Radioactive peaks were identified by coelution with cold reference retinoids.
The kinetics of biosynthesis of 13,14DHR and 14HRR were determined in 5/2 lymphoblastoid cells. These cells were cultured in the presence of ^3 H retinol for different time periods, and the cell-associated retinoids extracted as referenced above. They were then chromatographed on an analytical C18 column as described in FIG. 20. The sizes of peaks emerging at 16.8 minutes, representing 13,14DHR, and 18.5 minutes, representing 14HRR, were measured and plotted in the bar diagram of FIG. 24.

ERLD = assay: Retinol metabolism; format: in vitro ADME
Experimental: (§1) FBS. The FBS was preincubated at room temperature with 14.4 uCi [^3 H
(§2) retinol (NEN) for 4 h. The cell pellet was washed twice with PBS. The
(§3) retinoid were extracted according to MClean et al. 90 and separated on an
(§4) analytical c18 reverse phase column according to FIG. 7. The DPM wer
(§5) determined using an online scintillation counter.

RPMI = assay: Retinol metabolism; format: in vitro ADME; details: RPMI leukemia (ALL)
Experimental: as §1, §2, §3, §4, §5

SK3886 = assay: Retinol metabolism; format: in vitro ADME
Experimental: as §1, §2, §3, §4, §5

[2] = cited from earlier work

lability relative to retinal [1]: much more labile molecule than retinal
reversion to retinol (Reversion to retinol): does not revert to retinol
SMILES: CC(C=CC=C(C)C(O)CO)=CC=C1C(C)=CCCC1(C)C (stereo not drawn) [14HRR, 14-hydroxy-4,14-retro-retinol]
activity relative to all-trans retinol in T cells (T cells): as active
substitution for retinol in T cell activation (T cells): capable of supporting T cell activation and proliferation
substitution for retinol in T cell activation (T cells; listed as 14-hydroxy-retro-retinol): effectively supports T cell activation in conjunction with a mitogen in lieu of retinol; also recorded: capable of supporting activation and sustaining proliferation of T cells
T cell activation on its own (T cells): unable to activate T cells on their own

Total cts. (ERLD): 2.8 × 10^5 cts.
Ester (% of taken up retinol) (ERLD; overnight): 20%
P3 (% of taken up retinol) (ERLD; overnight): 9%
Retinol (% of taken up retinol) (ERLD; overnight): 63%
Total cts. (RPMI): 1.2 × 10^5 cts.
Ester (% of taken up retinol) (RPMI; overnight): 38%
P3 (% of taken up retinol) (RPMI; overnight): 2%
Retinol (% of taken up retinol) (RPMI; overnight): 58%
Total cts. (SK3886; SK3886): 4.7 × 10^5 cts.
Ester (% of taken up retinol) (SK3886; SK3886, overnight): 2%
P3 (% of taken up retinol) (SK3886; SK3886, overnight): 3%
Retinol (% of taken up retinol) (SK3886; SK3886, overnight): 92%
SMILES: CC1=C(/C=C/C(C)=C/C=C/C(C)=C/CO)C(C)(C)CCC1 [retinol, all-trans retinol]
activation in FCS-containing medium in absence of APC (T cells; additional retinol supplied, FCS medium): no activation
optimally effective dose (T cells; given once in a 3-day culture): 2 µM
optimally effective dose (T cells; provided at 12 hour intervals): 0.2 µM
T cell activation on its own (T cells): unable to activate T cells on their own
retinoids identified after 3H-retinol (5/2 cells): 13-cis retinol, all-trans retinol, and several retinyl esters were identified
retinoids not detected after 3H-retinol (5/2 cells): Retinoic acid, 3,4-didehydroretinol acid as well as 3,4-didehydroretinol were not detectable
order of metabolite production (5/2 lymphoblastoid cells): production of 13,14DHR precedes that of 14HRR
half-life ([2]; cell culture, serum-free medium (32)): < 24 h
half-life ([2]; serum-free tissue culture medium (32)): ~24 h
